Results as given in US12383629B2, “DNA-affibody-drug nanoparticles for inhibiting the metastasis of cancer cells overexpressing HER2” (Arizona Board of Regents on behalf of Arizona State …, priority 2019, dated 2025).

Tested on: HER2 receptor
Assay: Western blot assay for HER2 targeting
Format: cell-based
Details: BT474, 1 h; 1 μM DOX, 0.02 μM III, 1 μM Herceptin
Procedure: Western Blot Analysis—BT474 cells (50,000 cells/mL) were seeded in a 6-well cell culture plate and incubated in 1 mL of Gibco® RPMI 1640 medium supplemented with 10% fetal bovine serum (FBS) and 1% antibiotic-antimycotic mix antibiotic supplement at 37° C. for 24 h in a 5% CO2 atmosphere. […] The cells were washed with 1 mL 1×PBS buffer, and treated with 150 μL Cellstripper® non-enzymatic cell dissociation solution. After centrifugation at 500×g for 3 min, the cell pellets were washed with 150 μL 1×PBS buffer and treated with 60 μL, of 1×RIPA lysis buffer containing protease and phosphatase inhibitor cocktail (Sigma-Aldrich). After three cycle of freeze, thaw and sonication following by centrifugation at 15,000×g for 2 min at 4° C., the clear supernatant was collected.
Total protein concentration was measured using a BCA kit (Thermo Fisher Scientific). NuPAGE LDS Sample Buffer (4×) and NuPAGE Reducing Agent (10×) was added to the lysate which was denatured at 70° C. for 5 min. Equal amounts of lysates (25 μg) were loaded on a 4%-12% SDS-polyacrylamide Bis-Tris gels (Invitrogen) according to the manufacturer's recommendations and then proteins were transferred to nitrocellulose membranes. […]

COc1cccc2c1C(=O)c1c(O)c3c(c(O)c1C2=O)C[C@@](O)(C(=O)CO)C[C@@H]3O[C@H]1C[C@H](N)[C@H](O)[C@H](C)O1 [DOX, doxorubicin]
level of phosphorylated HER2 (Y1221/1222): did not change
